Measured values as given in US12454530B2, “Amido cyclohexane acid derivatives as LPA receptor inhibitors” (CHIESI FARMACEUTICI S.P.A., priority 2020, dated 2025).
Like-named read-outs stand apart in the source and are kept apart here.

Assays:
[1] = biological target: human recombinant LPA1 expressed in CHO cells (Homo sapiens (Human), UniProt Q92633); experiment: LPA1 antagonist FLIPR calcium assay in CHO-hLPA1 cells; format: cell-based
Description: The effectiveness of compounds of the present invention as LPA1 antagonists can be determined at the human recombinant LPA1 expressed in CHO cells, using a FLIPR assay in 384 well format.
CHO-hLPA1 cell lines are cultured in a humidified incubator at 5% CO2 in DMEM/F-12 (1:1) MIXTURE with 2 mM Glutamax, supplemented with 10% of Foetal Bovine Serum, 1 mM Sodium Pyruvate, 11 mM Hepes and 1× Penicillin/Streptomycin. […] Serial dilutions (1:3 or 1:4, 11 points CRC) of compounds are performed in 100% DMSO at 200× the final concentration. […] The final concentration of DMSO in the assay will be 0.5% in each well. Medium is removed by aspiration and cells are then incubated with 30 μl of a loading solution containing 5 μM of the cytoplasmic Ca2+ indicator Cal-520 AM in Assay Buffer containing 2.5 mM probenecid for 30 min at 37° C. incubator (cell loading). The loaded cell plates are transferred into the FLIPR instrument and calcium responses are monitored during the on-line addition protocols. For testing of compounds, after the cell loading, 10 μl/well of 4× antagonists' solution was added onto the cells. After 30 min pre-incubation (at 37° C.), 10 μl/well of 5× concentrated LPA EC80 was added and Ca2+ mobilization responses was followed during the on-line addition protocol. Intracellular peak fluorescence values subtracted by baseline fluorescence are exported and analysed to determine IC50 values, respectively. The calcium response is expressed as percentage of the maximal inhibition of the EC80 agonist response.
The raw data (peak height expressed as relative fluorescence units) are normalized and transformed into “percent of inhibition”. Curve fitting and pIC50 (−LogIC50) estimations are carried out using a four-parameter logistic model using XLfit Software.

BSEP = BSEP (Homo sapiens (Human), UniProt O95342); experiment: BSEP inhibition: biliary clearance of Taurocolic Acid in sandwich-cultured human hepatocytes; format: in vitro ADME; details: 50 μM test compound, 10 μM TCA, human hepatocytes sandwich configuration; for inhibition at 10 min, 50 μM: sandwich-cultured cryopreserved human hepatocytes, probe Taurocolic Acid (TCA)
Sequence of BSEP (O95342 whole entry): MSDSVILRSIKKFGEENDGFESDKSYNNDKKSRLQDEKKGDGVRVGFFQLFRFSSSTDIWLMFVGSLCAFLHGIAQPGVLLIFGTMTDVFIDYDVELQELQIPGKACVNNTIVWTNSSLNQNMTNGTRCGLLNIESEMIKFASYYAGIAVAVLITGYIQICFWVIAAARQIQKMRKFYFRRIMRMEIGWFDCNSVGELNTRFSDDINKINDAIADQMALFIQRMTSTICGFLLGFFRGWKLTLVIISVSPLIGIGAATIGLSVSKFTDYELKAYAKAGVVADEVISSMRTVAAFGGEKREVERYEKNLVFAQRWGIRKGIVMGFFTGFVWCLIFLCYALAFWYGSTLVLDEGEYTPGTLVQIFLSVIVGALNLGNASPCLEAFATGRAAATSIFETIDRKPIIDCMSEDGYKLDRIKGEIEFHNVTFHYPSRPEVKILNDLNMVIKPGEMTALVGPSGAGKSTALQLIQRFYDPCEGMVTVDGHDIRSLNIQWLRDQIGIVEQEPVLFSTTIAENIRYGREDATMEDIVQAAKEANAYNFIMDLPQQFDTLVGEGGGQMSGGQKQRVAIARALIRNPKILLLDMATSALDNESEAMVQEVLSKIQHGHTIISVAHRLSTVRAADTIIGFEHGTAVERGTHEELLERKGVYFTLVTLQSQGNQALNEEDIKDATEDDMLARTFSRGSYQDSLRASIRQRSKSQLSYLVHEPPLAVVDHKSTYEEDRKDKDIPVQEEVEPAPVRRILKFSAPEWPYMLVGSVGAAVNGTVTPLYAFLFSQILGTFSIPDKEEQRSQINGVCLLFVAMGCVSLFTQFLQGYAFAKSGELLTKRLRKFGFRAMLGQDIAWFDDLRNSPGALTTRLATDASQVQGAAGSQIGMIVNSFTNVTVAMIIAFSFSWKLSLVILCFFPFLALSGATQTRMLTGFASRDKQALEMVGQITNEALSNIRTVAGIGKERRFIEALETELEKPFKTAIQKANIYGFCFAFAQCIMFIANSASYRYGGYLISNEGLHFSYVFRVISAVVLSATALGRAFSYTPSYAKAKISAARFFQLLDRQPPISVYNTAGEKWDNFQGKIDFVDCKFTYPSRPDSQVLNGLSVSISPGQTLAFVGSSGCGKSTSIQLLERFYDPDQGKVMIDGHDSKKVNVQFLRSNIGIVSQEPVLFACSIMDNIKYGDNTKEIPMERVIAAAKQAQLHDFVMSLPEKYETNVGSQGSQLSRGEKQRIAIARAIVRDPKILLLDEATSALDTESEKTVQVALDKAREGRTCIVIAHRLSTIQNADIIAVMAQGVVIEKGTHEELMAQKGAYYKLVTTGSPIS
Description: BSEP inhibition was evaluated using human hepatocytes cultured between two layer of collagen (sandwich configuration). In this culture condition, hepatocytes express relevant transporters including BSEP and retain the bile canalicular structure. An inhibition of the biliary clearance of Taurocolic Acid (TCA), a known BSEP substrate, was used to assess BSEP interaction.
BSEP inhibition was evaluated using cryopreserved human hepatocytes (Plateable Cryopreserved Human Hepatocytes, BIOIVT) cultured for 5 day between two layer of collagen (sandwich configuration). In this culture condition, hepatocytes express relevant transporters including BSEP and retain the bile canalicular structure.
On day 5 of culture, hepatic cells are ready for the assay and the biliary clearance of Taurocolic Acid (TCA), a known BSEP substrate, can be estimated in presence and in absence of compound of interest.
The sample solution was prepared dissolving test compound and TCA in DMSO and then diluted in the Assay Buffer: Hank's Balance Salt Solution (HBSS+) warmed at 37° C. before use, to give the 10 μM TCA working solution with and without 50 μM of test compound. Hepatocytes were incubated for 10 minutes with these working solutions allowing TCA to be excreted into bile. At the end of incubation, the working solution was aspirated, and the content of the bile was collected through the addition of HBSS Modified without Ca2+/Mg2+(HBSS−). The presence of Ca2+ in the buffer is required to maintain the integrity of the tight junctions, the diffusional barrier between the canalicular lumen and extracellular space. Instead, incubation of cells in Ca2+-free buffer disrupts the tight junctions and opens the bile canalicular structures, allowing the bile content to be released and collect for HPLC-MS/MS analysis.
The in vitro biliary clearance of TCA incubated with and without test compounds is calculated according to the following formula:
where • Acc. Bile=(TCA amount in HBSS (−) buffer samples (pmol/mg protein)*Volume of each samples (mL))/Protein content per well (mg) • AUC=Incubation time (min)*T0 Concentration. T0 concentration is the initial TCA concentration in the medium.
The inhibition of BSEP was calculated as percentage of inhibition of TCA biliary clearance in presence of compound of interest, according to the following formula: BSEP inhibition %=100−(TCA ClBil with test compound*100)
TCA ClBil without test compound.

[2] = range of activity, CHO-hLPA1, LPA EC80, Ca2+ mobilization, read-out: LPA1 IC50

Sequence of human recombinant LPA1 expressed in CHO cells (Q92633 whole entry): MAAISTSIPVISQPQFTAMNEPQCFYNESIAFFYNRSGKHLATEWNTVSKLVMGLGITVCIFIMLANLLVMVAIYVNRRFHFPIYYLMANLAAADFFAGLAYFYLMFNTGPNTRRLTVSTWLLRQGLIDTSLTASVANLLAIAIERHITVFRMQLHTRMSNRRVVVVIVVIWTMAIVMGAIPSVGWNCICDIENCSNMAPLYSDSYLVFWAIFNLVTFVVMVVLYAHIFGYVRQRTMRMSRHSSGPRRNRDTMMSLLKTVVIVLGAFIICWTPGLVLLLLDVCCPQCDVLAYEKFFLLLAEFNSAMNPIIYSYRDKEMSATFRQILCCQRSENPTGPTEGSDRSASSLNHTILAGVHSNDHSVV

Row | IC50 [1, 2] [nM] | SMILES | further results
1 | < 50 | C[C@@H](OC(=O)Nc1c(-c2ccc(NC(=O)C3CCCCC3C(=O)O)cc2)cnn1C)c1ccccc1Cl (single isomer, unassigned) [Example 4] | 
2 | 250 to 600 | C[C@@H](OC(=O)Nc1c(-c2ccc(NC(=O)C3CCCCC3C(=O)O)cc2)cnn1C)c1ccccc1Cl (single isomer, unassigned) [Example 5] | 
3 | 250 to 600 | C[C@@H](OC(=O)Nc1ccsc1-c1ccc(NC(=O)C2CCCCC2C(=O)O)cc1)c1ccccc1Cl (single isomer, unassigned) [Example 8] | 
4 | < 50 | C[C@@H](OC(=O)Nc1ccsc1-c1ccc(NC(=O)C2CCCCC2C(=O)O)cc1)c1ccccc1Cl (single isomer, unassigned) [Example 10] | BSEP Inhibition at 50 μM (BSEP): ≤50%
5 |  | Cc1nc(-c2onc(C)c2NC(=O)O[C@H](C)c2ccccc2Cl)ccc1NC(=O)C1CCCCC1C(=O)O (single isomer, unassigned) [Example 14] | BSEP Inhibition at 50 μM (BSEP): ≤50%
6 | 50 to 250 | Cc1noc(-c2ccc(NC(=O)[C@H]3CCCC[C@@H]3C(=O)O)cn2)c1NC(=O)OC(C)c1cccnc1F (single isomer, unassigned) [Example 18] | inhibition at 10 min, 50 μM (BSEP): ≤ 50%
7 | 50 to 250 | Cc1nc(-c2onc(C)c2NC(=O)OC(C)c2cccnc2F)ccc1NC(=O)[C@H]1CCCC[C@@H]1C(=O)O (single isomer, unassigned) [Example 20] | inhibition at 10 min, 50 μM (BSEP): ≤ 50%
8 | < 50 | C[C@@H](OC(=O)Nc1ccsc1-c1ccc(NC(=O)C2CCCCC2C(=O)O)cc1)c1ccccc1Cl (stereo partly drawn) [Example 6, Cis-2-((4-(3-((((R)-1-(2-chlorophenyl)ethoxy)carbonyl)amino)thiophen-2-yl)phenyl)carbamoyl)cyclohexane-1-carboxylic acid] | 
9 | 50 to 250 | Cc1nc(-c2onc(C)c2NC(=O)O[C@H](C)c2cccnc2Cl)ccc1NC(=O)[C@H]1CCCC[C@@H]1C(=O)O [Example 11, (1S,2S)-2-((6-(4-((((R)-1-(2-chloropyridin-3-yl)ethoxy)carbonyl)amino)-3-methylisoxazol-5-yl)-2-methylpyridin-3-yl)carbamoyl)cyclohexane-1-carboxylic acid] | inhibition at 10 min, 50 μM (BSEP): ≤ 50%
10 | 50 to 250 | Cc1nc(-c2onc(C)c2NC(=O)OC(C)c2cccnc2F)ccc1NC(=O)[C@H]1CCCC[C@@H]1C(=O)O (stereo partly drawn) [Example 19, (1S,2S)-2-((6-(4-(((1-(2-fluoropyridin-3-yl)ethoxy)carbonyl)amino)-3-methylisoxazol-5-yl)-2-methylpyridin-3-yl)carbamoyl)cyclohexane-1-carboxylic acid] | 
11 | 250 to 600 | C[C@@H](OC(=O)Nc1ccsc1-c1ccc(NC(=O)[C@H]2CCCC[C@@H]2C(=O)O)cn1)c1ccccc1Cl [Example 21, (1S,2S)-2-((6-(3-((((R)-1-(2-chlorophenyl)ethoxy)carbonyl)amino)thiophen-2-yl)pyridin-3-yl)carbamoyl)cyclohexane-1-carboxylic acid] | 
12 | 250 to 600 | Cc1nc(-c2onc(C)c2NC(=O)O[C@H](C)c2cccnc2)ccc1NC(=O)C1CCCCC1C(=O)O (stereo partly drawn) [Example 33, Cis-2-((2-methyl-6-(3-methyl-4-((((R)-1-(pyridin-3-yl)ethoxy)carbonyl)amino)isoxazol-5-yl)pyridin-3-yl)carbamoyl)cyclohexane-1-carboxylic acid] | 
13 |  | Cc1noc(-c2ccc(NC(=O)C3CCCCC3C(=O)O)cc2)c1NC(=O)O[C@H](C)c1cccnc1 (stereo partly drawn) [comparative Example B, 2-((4-(3-methyl-4-((((R)-1-(pyridin-3-yl)ethoxy)carbonyl)amino)isoxazol-5-yl)phenyl)carbamoyl)cyclohexane-1-carboxylic acid, reference compound] | IC50 ([1]; comparative compound, read-out: IC50 on receptor LPA1): > 1000 nM

Row | SMILES | IC50 [1, 2] [nM] | further results
14 | Cc1nc(-c2nnn(C)c2NC(=O)O[C@H](C)c2ccccc2Cl)ccc1NC(=O)[C@H]1CCCC[C@@H]1C(=O)O [Example 3, (1S,2S)-2-((6-(5-((((R)-1-(2-chlorophenyl)ethoxy)carbonyl)amino)-1-methyl-1H-1,2,3-triazol-4-yl)-2-methylpyridin-3-yl)carbamoyl)cyclohexane-1-carboxylic acid] | < 50 | inhibition at 10 min, 50 μM (BSEP): ≤ 50%
